Like-named read-outs stand apart in the source and are kept apart here.
Tests used:
[1] = test system: hamster cheek pouch arterioles (arcade arteriole and terminal arteriolar feed); experiment: Microvascular response (arteriolar diameter change) to locally applied curcumin in hamster cheek pouch tissue, intravital microscopy; format: in vivo; conditions: for EC50: Mesocricetus auratus
rat comb burn model = experiment: Burn injury progression in the rat hot comb burn model, intravenous curcumin; format: in vivo; conditions: for interspaces that progressed to full thickness necrosis, histologic analysis: day 7, control 67%
Procedure: In this study, we determined the effects of curcumin on burn progression in the rat hot comb model. […] Pure curcumin (99.9% as determined by HPLC and mass spectroscopy analysis) produced under GMP was acquired from ChromaDex, Inc for the studies described below.
Animals were randomized to receive one of six intravenous doses of curcumin (0.3, 1.0, 3.0, 10, 30, or 100 μg/kg) in 1 ml of phosphate buffered saline (PBS) or PBS alone (buffer control) administered via the tail vein at 1 and 24 hours after injury. […] Full-thickness biopsies from the interspaces 7 days after injury were evaluated for evidence of necrosis after H&E staining. The percentages of interspaces that progressed to necrosis were compared with chi-squared (χ2) tests. At the seventh day, the number of interspaces that processed to full thickness necrosis was 67% for control, 58, 53, 37, 63, 53, and 26% for 0.1, 0.3, 1, 3, 10, 30 and 100 μg/kg curcumin respectively as determined by histologic analysis. Similar results were obtained for the macroscopic evaluation at day 2, 5, and 7. […] The same experiment was repeated a second time and gave essentially the same results.

[2] = curcumin alone, similar for arcade and feed

With COc1cc(/C=C/C(=O)CC(=O)/C=C/c2ccc(O)c(OC)c2)ccc1O [curcumin, (E,E)-1,7-bis (4-hydroxy-3-methoxyphenyl)-1,6-heptadiene-3,5,-dione] the “curcumin-induced dilation remaining with LNNA” value ([1]; 10^−4M LNNA, curcumin 10^−10 though 10^−7 M) was “significant curcumin-induced dilation remained”, the “curcumin-induced dilation remaining with LNNA” value ([1]; 10^−5M LNNA, 10^−12 to 10^−10 M curcumin) was “a significant dilation remained” and the “curcumin-induced dilation with LNNA” value ([1]; 10^−5M LNNA, terminal feed arterioles, similar pattern in arcade) was “attenuated”. It also gave an EC50 ([1]; curcumin alone, micropipette 60 s, similar for arcade and feed, read-out: logEC50 for dilation (converted)) of 0.316 nM, an EC50 ([1]; curcumin alone, similar for arcade and feed, read-out: logEC50 for constriction (converted)) of 3.98 nM and an EC50 ([1]; phentolamine 10^−5 M, constrictor component removed, read-out: logEC50, dilation to curcumin with phentolamine (converted)) of 0.1 ± 0.004 nM. The EC50 ([1]; propranolol 10^−5 M, dilation component removed, read-out: logEC50, constriction to curcumin with propranolol (converted)) was 0.01 nM, the “effect of simultaneous PD142893 on the curcumin response” value ([1]; PD142893 (endothelin antagonist) 10^−5 M) was “no effect” and the “effect of PD142893 on maximal dilation and constriction to curcumin” value ([1]; PD142893 (endothelin antagonist), no effect on baseline diameters) was “diminished the maximal dilation and enhanced the maximal constriction”. The “curcumin-induced dilation with cAMP blockade” value ([1]; Rp-8-br-cAMPS, curcumin 10^−6M, arcade, but not terminal arterioles) was “significantly suppressed”, the “curcumin-induced constriction with cAMP blockade” value ([1]; Rp-8-br-cAMPS, curcumin 10^−8M, arcade, but not terminal arterioles) was “attenuated” and the “curcumin-induced dilation with cGMP blockade” value ([1]; Rp-8-br-cGMPS, terminal and arcade arterioles) was “prevented all curcumin-induced dilation”. For the same molecule, the “local response after microvascular preconditioning” value ([1]; after deliberate microvascular preconditioning) was “predominantly constriction”, the “effect of simultaneous atropine on the curcumin response” value ([1]; atropine (muscarinic antagonist) 10^−7 M) was “no effect” and the “effect of atropine on maximal dilation and constriction to curcumin” value ([1]; atropine (muscarinic antagonist), no effect on baseline diameters) was “diminished the maximal dilation and enhanced the maximal constriction”. The “constrictor and dilatory (cGMP and cAMP mediated) responses before and after repeated exposure (potential cytotoxicity)” value ([1]; baseline diameter recovery and tone after repeated 60 second exposures) was “unchanged”, the “terminal arteriole diameter, 60 second time-course” value ([1]; curcumin 10^−6M continuously applied) was “initial vasodilation at 20 seconds was followed by vasoconstriction that peaked at 60 seconds” and the “terminal arteriole diameter, 60 second time-course” value ([1]; curcumin 10^−10M continuously applied) was “sustained dilation”. The “response to curcumin with propranolol and phentolamine together” value ([1]; curcumin 10^−10 M, 10^−8M and 10^−6M, terminal and arcade arterioles) was “blocked all response”, the peak constriction [1, 2] was −15±5% and the peak dilation [1, 2] was “+40±8%”. For the same molecule, the “peak dilation, terminal versus arcade arterioles” value ([1]; dose-response 10^−13M to 10^−3M, 20 s and 60 s) was “significantly greater for terminal arterioles than for arcade arterioles”, the “concentration inducing vasodilation after versus before preconditioning” value ([1]; in vivo studies to date, after preconditioning) was “lower concentrations” and the “effect on arteriolar diameter during induced endothelial dysfunction” value ([1]; nitro-arginine added to the tissue bath) was “the dilation component was potentiated and constriction was attenuated”. For the same molecule, the “peak dilation to curcumin with phentolamine, arcade” value ([1]; phentolamine 10^−5 M, arcade arteriole) was “+34±9”, the “peak dilation to curcumin with phentolamine, feed” value ([1]; phentolamine 10^−5 M, terminal feed arteriole) was “+65 +10” and the “peak constriction to curcumin with propranolol” value ([1]; propranolol 10^−5 M) was −30 ±7%. For the same molecule, the “constriction response to curcumin with phentolamine” value ([1]; terminal arteriole, phentolamine 10^−5M) was “abolished”, the “dilation response to curcumin with propranolol” value ([1]; terminal arteriole, propranolol 10^−5M) was “abolished” and the “progression to necrosis compared to control” value (rat comb burn model; 3 μg/kg and 100 μg/kg i.v., p<0.01, macroscopic evaluation and histologic analysis) was “significantly less progression to necrosis”. For the same molecule, the “interspaces that progressed to full thickness necrosis, histologic analysis” value (rat comb burn model; fifth value listed (30 μg/kg by method)) was 53%, the “interspaces that progressed to full thickness necrosis, histologic analysis” value (rat comb burn model; fourth value listed (10 μg/kg by method)) was 63% and the “interspaces that progressed to full thickness necrosis, histologic analysis” value (rat comb burn model; i.v. at 1 and 24 h after injury, first value listed (0.3 μg/kg by method, 0.1 μg/kg by the sentence)) was 58%. The “interspaces that progressed to full thickness necrosis, histologic analysis” value (rat comb burn model; last value listed (100 μg/kg)) was 26%, the “interspaces that progressed to full thickness necrosis, histologic analysis” value (rat comb burn model; second value listed (1 μg/kg by method)) was 53% and the “interspaces that progressed to full thickness necrosis, histologic analysis” value (rat comb burn model; third value listed (3 μg/kg by method)) was 37%.

Source: patent US20130005824A1, “TREATMENT OF ISCHEMIC TISSUE” (The Research Foundation of State University of New York, priority 2009, published 2013)
